Data from article PMC4413184, “Seco-Taondiol, an Unusual Meroterpenoid from the Chilean Seaweed Stypopodium flabelliforme and Its Gastroprotective Effect in Mouse Model” (Marine Drugs, 2015).
Entries after “also recorded” stand apart in the source; their conditions may differ. Marks after values point to notes of the source that are not given here.

How the values were obtained:
[1] = Cytotoxicity MTT assay, fibroblasts; format: cell-based, human; conditions: human, MRC fibroblasts, 48 h incubation
Protocol: (§1) The cytotoxic assay expressed as cell viability was conducted using MTT assay method. Cells at a density of 3 × 10^4 of MRC fibroblasts or AGS cells were plated in 96-well culture dishes. Compounds were assayed at concentrations ranging from 0 up to 500 μM. Incubated at 37 °C in humidified CO2 incubator for 24 h. After incubation, various concentrations in DMSO solvent of the compounds were added. Each compound was tested in quadruplicate and repeated three times. After 48 h incubation, assay was stop by adding MTT reagent (3-(4,5dimethylthiazol-2-yl)-2,5-diphenyltetrazolium bromide) and the incubation continue for next 4 h before the addition of MTT stop solution containing sodium dodecyl sulphate (SDS), the incubation continue for next 24 h. optical density was measured using microplate reader at 550 nm. IC50 value obtained from the plotted graph between percentage live cells compared to control.

[2] = Cytotoxicity MTT assay, AGS cells; format: cell-based, human; conditions: human, AGS cells (human gastric epithelial cells), 48 h incubation
Protocol: as §1

[3] = system: HCl/EtOH-induced gastric lesions in mice; assay: HCl/EtOH-induced gastric lesions model in mice; format: in vivo; conditions: for gastroprotective activity (in words): HCl/EtOH-induced gastric lesions model in mice; for Lesion Index (mm) / % Lesion Reduction / inhibition of the appearance of gastric mucosal lesions: mice; for Lesion Index (mm) / % Lesion Reduction: oral, title: 30 mg/kg, method: meroditerpenoids 40 mg/kg, lansoprazole 30 mg/kg; for Lesion Index (mm): mean ± sd, n = 7; for % Lesion Reduction: versus control; for inhibition of the appearance of gastric mucosal lesions: oral administration at 40 mg/kg
Protocol: The gastroprotective activity of the compounds 4a–5a, and 9, 11 was assessed in the HCl/EtOH-induced lesion model as described previously. Mice were randomly distributed into groups of seven animals each and fasted for 12 h with free access to water prior to the experiment. Fifty min after oral administration of the meroditerpenoids (40 mg/kg), lansoprazole (30 mg/kg) or 1% Tween 80 (10 mL/kg), all groups were orally treated with 0.2 mL of a solution containing 0.3 M HCl/60% ethanol (HCl/EtOH) for gastric lesion induction. Animals were sacrificed 1 h after the administration of HCl/EtOH, and the stomachs were excised and inflated by injection of saline (1 mL). The ulcerated stomachs were fixed in 5% formalin for 30 min and opened along the greater curvature. […] The length (mm) of each lesion was measured, and the lesion index was expressed as the sum of the length of all lesions.

[4] = system: HCl/EtOH-induced gastric lesions in NEM-pretreated mice; assay: HCl/EtOH-induced gastric lesions in N-ethylmaleimide (NEM)-pretreated mice; format: in vivo; conditions: NEM 10 mg/kg s.c. 30 min before, 1a 35 mg/kg, 3a 40 mg/kg oral
Protocol: (§2) To investigate the involvement of sulfhydryl compounds (SHs) in the gastroprotective effect of 1a and 3a, NEM s.c. (10 mg/kg, an SH blocker was dissolved in saline) was injected 30 min before administration of 1a, 3a or vehicle (NEM-treated). Fifty min after oral administration of 1a (35 mg/kg), 3a (40 mg/kg) or vehicle, all groups were orally treated with 0.2 mL of a solution containing 0.3 M HCl/60% ethanol (HCl/EtOH) for gastric lesion induction. Animals were sacrificed 1 h after the administration of HCl/EtOH, and the stomachs were excised and inflated by injection of saline (1 mL). The gastric mucosal lesions were induced and the length of gastric lesions was measured as described above.

[5] = system: HCl/EtOH-induced gastric lesions in mice; set-up: method as in PMID 21922901; conditions: cited from earlier work
[6] = system: HCl/EtOH-induced gastric lesions in L-NAME-pretreated mice; assay: HCl/EtOH-induced gastric lesions in L-NAME-pretreated mice; format: in vivo; conditions: L-NAME 70 mg/kg i.p. 30 min before, 1a 35 mg/kg, 3a 40 mg/kg oral
Protocol: as §2, with “endogenous nitric oxide (NO)” for “sulfhydryl compounds (SHs)”, “L-NAME i.p. (70” for “NEM s.c. (10”, “inhibitor of NO synthase” for “SH blocker”, “(L-NAME-treated).” for “(NEM-treated).”

[7] = system: HCl/EtOH-induced gastric lesions in RR-pretreated mice; assay: HCl/EtOH-induced gastric lesions in ruthenium red (RR)-pretreated mice; format: in vivo; conditions: RR 3.5 mg/kg s.c. 30 min before; 1a 35 mg/kg, 3a 40 mg/kg oral
Protocol: as §2, with “vanilloid receptor” for “sulfhydryl compounds (SHs)”, “RR” for “NEM”, “(3.5” for “(10”, “a vanilloid receptor antagonist” for “an SH blocker”, “(RR-treated).” for “(NEM-treated).”

[8] = system: HCl/EtOH-induced gastric lesions in indomethacin-pretreated mice; assay: HCl/EtOH-induced gastric lesions in indomethacin-pretreated mice; format: in vivo; conditions: indomethacin 30 mg/kg s.c. 30 min before, 1a 35 mg/kg, 3a 40 mg/kg oral
Protocol: as §2, with “endogenous prostaglandins” for “sulfhydryl compounds (SHs)”, “indomethacin” for “NEM”, “(30” for “(10”, “inhibitor of the prostaglandin synthesis” for “SH blocker”, “5% NaHCO3)” for “saline)”, “(IND-treated).” for “(NEM-treated).”

[9] = system: human fibroblast (MRC fibroblasts); assay: Cytotoxicity MTT assay, fibroblasts; format: cell-based; conditions: 48 h incubation
Protocol: as §1

[10] = system: human epithelial gastric cells (AGS); assay: Cytotoxicity MTT assay, AGS cells; format: cell-based; conditions: 48 h incubation
Protocol: as §1

Structure (SMILES) | IC50 at 48 h [1] [µM] | IC50 at 48 h [2] [µM] | gastroprotective activity (in words) [3] | Lesion Index (mm) [3] [mm] | % Lesion Reduction [3] | further results
COc1c(C)cc(OC(C)=O)cc1CC1C(C)CCC2C3(C)CCC(OC(C)=O)C(C)(C)C3=CCC12C (stereo not drawn) [Compound 7, O,C(3)-seco-9-ene-6β-taondiol diacetate] | 102 ± 6 | 85 ± 5 | – | – | – | –
CC(=O)Oc1cc(C)c2c(c1OC(C)=O)CC1(O2)C(C)CCC2C3(C)CCC(OC(C)=O)C(C)(C)C3CCC21C (stereo not drawn) [Compound 9, stypotriol triacetate] | 21 ± 5 | 14 ± 3 | inactive | 36.4 ± 5.2 | 12% | –
Cc1c(OCC(F)(F)F)ccnc1C[S+]([O-])c1nc2ccccc2[nH]1 (stereo not drawn) [Lansoprazole, lansoprazole, reference compound] | 392 ± 6 | 198 ± 5 | – | 14.1 ± 3.6 | 66 * % | –
Cc1cc(O)cc2c1OC1(C2)C(C)CCC2C3(C)CCC(O)C(C)(C)C3CCC21C (stereo not drawn) [Compound 4a, stypodiol] | 215 ± 8 | 153 ± 9 | gastroprotective activity in similar way than positive control | 13.0 ± 4.0 | 69 * % | gastroprotective activity (in words) ([3]; listed as stypodiol): exhibited gastroprotective activity; inhibition of the appearance of gastric mucosal lesions [3]: 69%
CC(=O)Oc1c(Cl)c(C)c2c(c1OC(C)=O)CC1(O2)C(C)CCC2C3(C)CCC(OC(C)=O)C(C)(C)C3CCC21C (stereo not drawn) [Compound 8, 4'-chlorostypotriol triacetate] | 12 ± 1 | 11 ± 1 | – | – | – | –
CC(C)=CCC/C(C)=C/CC/C(C)=C/CC[C@]1(C)C=Cc2cc(O)cc(C)c2O1 [Compound 1a, sargaol] | 12 ± 3 | 18 ± 4 | exhibited gastroprotective activity | 20.0 ± 3.6 | 52 * % | effect of NEM pre-treatment on the gastroprotective effect [4]: reduced; also recorded: reversed significantly; effect of NEM pre-treatment on the gastroprotective effect ([4]; listed as sargaol): attenuated; gastroprotective activity ED50 [5]: 35 mg/kg; effect of L-NAME pre-treatment on the gastroprotective effect [6]: has not attenuated; effect of ruthenium red pre-treatment on the gastroprotective effect [7]: did not reduce; effect of indomethacin pre-treatment on the gastroprotective effect [8]: reversed significantly; effect of indomethacin pre-treatment on the gastroprotective effect ([8]; listed as sargaol): attenuated
Cc1cc(O)cc2c1OC1(C)CCC3C(C)(CCC4C(C)(C)C(O)CCC43C)C1C2 (stereo not drawn) [Compound 5a, isoepitaondiol] | – | – | gastroprotective activity in similar way than positive control | 9.1 ± 3.6 | 78 * % | IC50 [9]: 65 ± 3 µM; gastroprotective activity (in words) ([3]; listed as isoepitaondiol): exhibited gastroprotective activity; inhibition of the appearance of gastric mucosal lesions [3]: 78%; IC50 [10]: 42 ± 2 µM
Cc1cc(O)cc2c1OC1(C)CCC3C(C)(CCC4C(C)(C)C(O)CCC43C)C1C2 (stereo not drawn) [Compound 3a, epitaondiol] | – | 29 ± 3 | exhibited gastroprotective activity | 16.7 ± 3.1 | 60 * % | IC50 [9]: 19 ± 4 µM; effect of NEM pre-treatment on the gastroprotective effect [4]: reduced; effect of NEM pre-treatment on the gastroprotective effect ([4]; listed as epitaondiol): reversed significantly; gastroprotective activity ED50 [5]: 40 mg/kg; effect of L-NAME pre-treatment on the gastroprotective effect [6]: reduced; effect of L-NAME pre-treatment on the gastroprotective effect ([6]; listed as epitaondiol): reversed significantly; effect of ruthenium red pre-treatment on the gastroprotective effect [7]: did not reduce; effect of indomethacin pre-treatment on the gastroprotective effect [8]: attenuated; effect of indomethacin pre-treatment on the gastroprotective effect ([8]; listed as epitaondiol): reversed significantly
CC(=O)Oc1cc(C)c2c(c1OC(C)=O)CC1(O2)C(C)CCC2C3(C)CCC(=O)C(C)(C)C3CCC21C (stereo not drawn) [Compound 11, 14-ketostypodiol diacetate] | 102 ± 6 | 65 ± 4 | inactive | 37.9 ± 7.3 | 9% | –
